Reference: patent US11987645B2, “Peptide for treating rheumatoid arthritis and use thereof” (SEOUL NATIONAL UNIVERSITY R&DB FOUNDATION, priority 2018, dated 2024)

Experiments:
[1] = tested on: peripheral blood mononuclear cells obtained from rheumatoid arthritis patients; assay: Inflammatory cytokine secretion after treating peripheral blood mononuclear cells of rheumatoid arthritis patients with apoB100-derived peptides #1 to #5; assay type: cell-based, human; settings: PBMC of rheumatoid arthritis patients; control non-binding peptide (NBP); FIG. 8
Procedure: Thereafter, peripheral blood mononuclear cells obtained from the healthy control and rheumatoid arthritis patients were treated with the peptides #1 to #5 (which are named apoB100 #1, apo100 #2, apoB100 #3, apoB100 #4, and apoB100 #5, respectively), and changes in the secretion of IL-1β, IL-6 and TNF-α were compared. Meanwhile, a non-binding peptide treated group (NBP) was determined as the control group, and the results of this example are indicated as the mean values of the secretion levels for each six of rheumatoid arthritis patients and healthy individuals.

[2] = tested on: peripheral blood cells derived from rheumatoid arthritis patients; assay: Example 3-1: inflammatory cytokine secretion in peripheral blood cells derived from rheumatoid arthritis patients; assay type: cell-based, human; settings: FIG. 10; for secretion level of IL-1β / secretion level of IL-6 / secretion level of TNF-α: peripheral blood cells of rheumatoid arthritis patients, control NBP
Procedure: After peripheral blood cells derived from rheumatoid arthritis patients were treated with apoB100 #1, apoB100 #3, and apoB100 #5, changes in the secretion of IL-1β, IL-6 and TNF-α were identified. A non-binding peptide treated group (NBP) was determined as the control group.

[3] = tested on: K/B×N rheumatoid arthritis animal model; assay: Example 3-2: K/B×N rheumatoid arthritis animal model (K/B×N serum transfer arthritis mouse); assay type: in vivo; settings: subcutaneous injection to the affected region; K/B×N serum and apoB induced; FIG. 11
Excerpt: K/B×N rheumatoid arthritis animal model (K/B×N serum transfer arthritis mouse) was established by inducing moderate rheumatoid arthritis by administering K/B×N serum and apoB to the mouse, and peptides for inhibiting the secretion of inflammatory cytokine were subcutaneously injected to the affected region of the animal model. Afterwards, changes in the ankle thickness and arthritis score resulting after peptide injection were identified. In addition, under the same conditions as described above, changes in the synovial inflammation, bone erosion, cartilage damage and leukocyte infiltration were compared. Meanwhile, groups treated with K/B×N serum and apoB only were determined as control groups, and groups treated with K/B×N serum and apoB, and a non-binding peptide treated group (NBP) were determined as comparison groups.

ENO1 (α-enolase) = ENO1 (α-enolase) (Homo sapiens, UniProt P06733); assay: ENO1-apoB100 binding by immunoblotting, confocal microscopy, BIACORE system and ELISA assay; settings: ELISA, FIG. 3
Sequence of ENO1 (α-enolase) (P06733 whole entry): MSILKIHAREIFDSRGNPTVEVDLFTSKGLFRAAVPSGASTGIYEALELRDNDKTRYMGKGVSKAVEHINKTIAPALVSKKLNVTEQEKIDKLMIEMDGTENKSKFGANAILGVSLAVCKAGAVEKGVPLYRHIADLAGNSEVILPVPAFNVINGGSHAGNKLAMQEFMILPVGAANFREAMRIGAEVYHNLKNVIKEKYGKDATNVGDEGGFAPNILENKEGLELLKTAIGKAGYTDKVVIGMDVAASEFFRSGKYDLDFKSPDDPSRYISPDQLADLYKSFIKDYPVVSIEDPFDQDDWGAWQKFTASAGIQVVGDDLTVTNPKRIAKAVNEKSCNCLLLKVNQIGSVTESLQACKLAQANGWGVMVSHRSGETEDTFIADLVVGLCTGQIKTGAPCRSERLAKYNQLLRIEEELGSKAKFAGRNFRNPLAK

[4] = tested on: peripheral blood mononuclear cells isolated from rheumatoid arthritis patients; assay: Inflammatory cytokine secretion after treating peripheral blood mononuclear cells of rheumatoid arthritis patients with apoB100; assay type: cell-based, human
Excerpt: In this example, in order to identify the relation between rheumatoid arthritis and ENO1 expression on peripheral blood mononuclear cells, the ENO1 expression thereof was observed. In addition, it was attempted to identify the effect of binding ENO1 (α-enolase) to apolipoprotein B100 (apoB100) isolated from a rheumatoid arthritis patient and selected as an ENO1 (α-enolase) binding ligand on the secretion of inflammatory cytokine in the peripheral blood of the rheumatoid arthritis patient through proteomic analysis using immunoprecipitation (IP)/mass spectroscopy (MS). In detail, after ENO1 immunoblotting was performed on mononuclear cells obtained from the rheumatoid arthritis patient and peripheral blood mononuclear cells were treated with apoB100, changes in the secretion of IL-1β, IL-6 and TNF-α were compared. Meanwhile, a group in which cells isolated from healthy individuals are used (HC: healthy control) was determined as the control group.
Accordingly, in this example, it was additionally verified whether the binding of ENO1 and apoB100 crucially affected inflammation responses due to rheumatoid arthritis. […] In addition, since LDL existing in vivo in a state in which it binds to apoB100 protein may potentially involve the inflammation responses, LDLR knockout mouse and C57BL/6 wild-type mouse control group were treated with the serum of K/B×N mouse (referred to as K/B×N serum, hereinafter) and ApoB100, and resulting changes in vivo were compared. Meanwhile, addition of K/B×N mouse serum functions to induce rheumatoid arthritis through deposition of autoantibodies existing in the K/B×N serum, and is one of conventional techniques for manufacturing rheumatoid arthritis animal models by autoimmune responses.

[5] = RA patient mononuclear cells treated with apoB100, compared to healthy control group, FIG. 2

ENO1-apoB100 binding (ENO1 (α-enolase))	Substance	secretion level of IL-1β [1]	secretion level of IL-6 [1]	secretion level of TNF-α [1]	secretion level of IL-1β [2]	secretion level of IL-6 [2]	secretion level of TNF-α [2]	ankle thickness [3]	arthritis score [3]	treatment efficacy (decrease of cytokine secretion) compared among the peptides ([2]; among apoB100 #1, #3 and #5)	secretion level of inflammatory cytokines ([4]; ENO1 expression of PBMC inhibited with ENO1 siRNA, then apoB100 treatment, FIG. 4)	secretion level of IL-1β [4, 5]	secretion level of IL-6 [4, 5]	secretion level of TNF-α [4, 5]
	AICKEQHLFLPF (peptide #1) [apoB100 #1]	decreased	decreased	decreased	significantly decreased	significantly decreased	significantly decreased	significantly decreased	significantly decreased					
	CKEQHLFLPFSY (peptide #2) [apoB100 #2]	markedly increased	markedly increased	markedly increased										
	KNKYGMVAQVTQ (peptide #4) [apoB100 #4]	markedly increased	markedly increased	markedly increased										
	SYKNKYGMVAQV (peptide #3) [apoB100 #3]	decreased	decreased	decreased	significantly decreased	significantly decreased	significantly decreased	significantly decreased	significantly decreased	highest				
	TKKMGLAFESTK (peptide #5) [apoB100 #5]	decreased	decreased	decreased	significantly decreased	significantly decreased	significantly decreased	significantly decreased	significantly decreased					
relatively strong binding	apolipoprotein B100 [apoB100]										an increased secretion level of inflammatory cytokines was not observed	markedly increased	markedly increased	markedly increased
